Experiments:
[1] = target: T1, Histone-lysine N-methyltransferase SMYD3 (Homo sapiens) (UniProt Q9H7B4); conditions: at 1 µM
T1 sequence (whole entry): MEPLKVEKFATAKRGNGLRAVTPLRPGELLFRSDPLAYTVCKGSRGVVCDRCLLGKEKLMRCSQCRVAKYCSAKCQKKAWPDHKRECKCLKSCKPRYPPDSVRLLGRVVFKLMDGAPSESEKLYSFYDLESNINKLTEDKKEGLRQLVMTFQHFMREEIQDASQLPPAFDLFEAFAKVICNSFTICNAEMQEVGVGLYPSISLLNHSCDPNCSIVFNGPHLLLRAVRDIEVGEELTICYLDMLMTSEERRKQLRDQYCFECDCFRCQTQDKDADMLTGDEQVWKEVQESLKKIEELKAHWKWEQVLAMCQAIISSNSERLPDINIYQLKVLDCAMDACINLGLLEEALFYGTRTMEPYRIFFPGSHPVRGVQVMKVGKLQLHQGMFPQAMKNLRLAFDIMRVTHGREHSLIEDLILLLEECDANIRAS

[2] = target: T2, Receptor-interacting serine/threonine-protein kinase 1 (Homo sapiens) (UniProt Q13546); assay: Selectivity interaction (KinomeScan (DiscoverX)) EUB0000595a RIPK1; conditions: at 10 µM
T2 sequence (whole entry): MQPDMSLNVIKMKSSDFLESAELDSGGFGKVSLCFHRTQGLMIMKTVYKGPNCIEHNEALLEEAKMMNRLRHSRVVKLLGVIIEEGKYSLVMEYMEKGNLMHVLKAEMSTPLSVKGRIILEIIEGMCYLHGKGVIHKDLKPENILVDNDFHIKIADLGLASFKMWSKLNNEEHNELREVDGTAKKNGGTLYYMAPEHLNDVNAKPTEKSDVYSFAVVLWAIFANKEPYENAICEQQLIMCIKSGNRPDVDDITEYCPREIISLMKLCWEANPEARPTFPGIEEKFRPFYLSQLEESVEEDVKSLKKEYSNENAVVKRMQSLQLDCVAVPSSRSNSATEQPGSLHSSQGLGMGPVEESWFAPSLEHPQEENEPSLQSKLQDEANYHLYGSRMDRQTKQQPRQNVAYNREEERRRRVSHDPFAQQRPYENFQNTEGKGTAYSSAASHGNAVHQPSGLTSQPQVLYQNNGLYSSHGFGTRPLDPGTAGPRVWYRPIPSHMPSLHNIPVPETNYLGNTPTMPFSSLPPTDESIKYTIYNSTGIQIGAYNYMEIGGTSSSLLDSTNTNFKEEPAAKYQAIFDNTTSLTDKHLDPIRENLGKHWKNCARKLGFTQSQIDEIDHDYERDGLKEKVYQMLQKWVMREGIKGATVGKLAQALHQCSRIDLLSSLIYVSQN

[3] = target: T3, Mitogen-activated protein kinase kinase kinase 12 (Homo sapiens) (UniProt Q12852); assay: Selectivity interaction (KinomeScan (DiscoverX)) EUB0000045b MAP3K12
T3 sequence (whole entry): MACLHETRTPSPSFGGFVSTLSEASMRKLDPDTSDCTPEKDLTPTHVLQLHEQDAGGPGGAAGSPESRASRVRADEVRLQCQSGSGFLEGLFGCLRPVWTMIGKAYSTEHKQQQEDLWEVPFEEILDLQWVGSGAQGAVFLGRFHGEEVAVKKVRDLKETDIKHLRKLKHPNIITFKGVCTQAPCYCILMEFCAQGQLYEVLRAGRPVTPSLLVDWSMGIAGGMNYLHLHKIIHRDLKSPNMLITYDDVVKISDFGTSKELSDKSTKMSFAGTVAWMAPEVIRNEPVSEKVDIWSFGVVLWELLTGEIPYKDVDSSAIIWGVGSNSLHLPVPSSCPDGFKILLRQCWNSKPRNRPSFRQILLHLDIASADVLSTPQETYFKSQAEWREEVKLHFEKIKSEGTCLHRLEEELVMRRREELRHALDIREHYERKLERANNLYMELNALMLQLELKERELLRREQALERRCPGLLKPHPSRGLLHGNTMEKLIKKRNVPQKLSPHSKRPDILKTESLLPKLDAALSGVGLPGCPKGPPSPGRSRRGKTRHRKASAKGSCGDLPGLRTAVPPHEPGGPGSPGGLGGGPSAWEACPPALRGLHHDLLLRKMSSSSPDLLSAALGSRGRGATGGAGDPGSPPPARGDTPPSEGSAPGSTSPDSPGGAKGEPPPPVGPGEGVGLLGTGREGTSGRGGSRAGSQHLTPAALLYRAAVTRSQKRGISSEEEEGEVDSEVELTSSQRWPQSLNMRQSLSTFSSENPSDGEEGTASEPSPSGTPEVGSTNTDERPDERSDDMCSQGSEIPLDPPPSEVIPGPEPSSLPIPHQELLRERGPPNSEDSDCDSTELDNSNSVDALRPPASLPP

[4] = target: Serine/threonine-protein kinase 16 (Homo sapiens, UniProt O75716); assay: Selectivity interaction (KinomeScan (DiscoverX)) EUB0000618a STK16; conditions: at 10 µM
[5] = target: Mitogen-activated protein kinase kinase kinase 1 (Homo sapiens, UniProt Q13233); conditions: at 10 µM
[6] = target: T4, Myosin light chain kinase family member 4 (Homo sapiens) (UniProt Q86YV6); conditions: at 10 µM
T4 sequence (whole entry): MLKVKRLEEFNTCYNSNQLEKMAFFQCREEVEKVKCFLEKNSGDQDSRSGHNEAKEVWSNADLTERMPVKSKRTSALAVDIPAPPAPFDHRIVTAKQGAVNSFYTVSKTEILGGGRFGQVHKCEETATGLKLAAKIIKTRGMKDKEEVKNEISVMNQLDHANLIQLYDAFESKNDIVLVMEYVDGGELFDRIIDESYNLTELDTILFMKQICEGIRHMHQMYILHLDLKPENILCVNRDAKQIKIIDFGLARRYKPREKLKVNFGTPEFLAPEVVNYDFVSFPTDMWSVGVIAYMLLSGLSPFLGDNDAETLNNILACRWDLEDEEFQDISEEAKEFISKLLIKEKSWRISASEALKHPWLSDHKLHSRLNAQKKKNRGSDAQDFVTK

Serine/threonine-protein kinase 16, sequence (O75716 whole entry): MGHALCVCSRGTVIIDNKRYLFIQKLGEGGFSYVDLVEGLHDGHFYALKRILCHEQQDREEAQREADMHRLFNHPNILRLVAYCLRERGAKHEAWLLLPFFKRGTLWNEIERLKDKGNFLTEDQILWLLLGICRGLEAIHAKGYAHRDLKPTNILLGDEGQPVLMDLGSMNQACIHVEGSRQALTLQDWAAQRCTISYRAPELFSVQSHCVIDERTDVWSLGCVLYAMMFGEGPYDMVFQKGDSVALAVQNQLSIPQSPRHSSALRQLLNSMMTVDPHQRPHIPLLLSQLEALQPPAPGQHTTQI
Mitogen-activated protein kinase kinase kinase 1, sequence (Q13233 whole entry): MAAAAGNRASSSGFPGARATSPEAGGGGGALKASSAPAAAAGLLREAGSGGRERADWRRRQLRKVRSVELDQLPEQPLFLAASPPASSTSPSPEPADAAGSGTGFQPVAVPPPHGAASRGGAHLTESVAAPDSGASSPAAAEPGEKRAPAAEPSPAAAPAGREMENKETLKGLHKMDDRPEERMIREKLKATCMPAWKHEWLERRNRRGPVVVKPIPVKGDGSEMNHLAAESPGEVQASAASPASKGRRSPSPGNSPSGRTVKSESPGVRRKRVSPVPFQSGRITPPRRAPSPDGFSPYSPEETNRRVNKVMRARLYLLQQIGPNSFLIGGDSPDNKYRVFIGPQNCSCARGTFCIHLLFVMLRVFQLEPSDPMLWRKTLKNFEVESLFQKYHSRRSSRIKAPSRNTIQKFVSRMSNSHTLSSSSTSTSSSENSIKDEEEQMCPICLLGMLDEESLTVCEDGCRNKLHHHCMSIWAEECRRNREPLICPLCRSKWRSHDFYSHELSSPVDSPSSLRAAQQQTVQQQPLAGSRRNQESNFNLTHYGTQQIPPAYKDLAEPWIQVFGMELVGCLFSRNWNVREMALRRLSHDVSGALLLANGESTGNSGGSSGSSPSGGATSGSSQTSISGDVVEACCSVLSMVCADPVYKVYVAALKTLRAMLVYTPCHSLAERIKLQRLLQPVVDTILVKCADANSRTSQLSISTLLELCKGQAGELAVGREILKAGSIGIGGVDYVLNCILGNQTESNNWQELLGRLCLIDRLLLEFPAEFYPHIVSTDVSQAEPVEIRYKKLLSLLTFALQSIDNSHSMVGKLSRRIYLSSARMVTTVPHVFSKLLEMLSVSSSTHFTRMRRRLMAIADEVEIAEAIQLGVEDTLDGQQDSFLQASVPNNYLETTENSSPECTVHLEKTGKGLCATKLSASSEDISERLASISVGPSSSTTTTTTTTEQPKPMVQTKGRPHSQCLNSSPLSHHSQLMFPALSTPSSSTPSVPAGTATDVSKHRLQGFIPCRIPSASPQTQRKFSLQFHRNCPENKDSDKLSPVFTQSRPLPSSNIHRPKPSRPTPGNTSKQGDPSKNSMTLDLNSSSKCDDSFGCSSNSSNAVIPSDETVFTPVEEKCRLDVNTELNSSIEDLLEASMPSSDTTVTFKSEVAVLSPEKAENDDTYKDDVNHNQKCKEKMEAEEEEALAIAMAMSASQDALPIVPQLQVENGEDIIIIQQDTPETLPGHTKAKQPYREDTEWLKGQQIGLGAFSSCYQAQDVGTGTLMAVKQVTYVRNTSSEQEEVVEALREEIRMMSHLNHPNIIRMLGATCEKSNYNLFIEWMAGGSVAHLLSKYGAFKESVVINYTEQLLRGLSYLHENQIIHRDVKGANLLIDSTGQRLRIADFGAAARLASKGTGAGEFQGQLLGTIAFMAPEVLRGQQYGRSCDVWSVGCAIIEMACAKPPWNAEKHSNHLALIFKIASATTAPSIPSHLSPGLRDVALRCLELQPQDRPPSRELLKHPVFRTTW

Structure (SMILES): CNCCN1CCC(c2cc(CN(C)C(=O)c3cccc(Oc4ccccc4)c3)ccn2)CC1
- % activity [1]: > 85%

Structure (SMILES): COCC(=O)NC/C=C/c1ccc2ncnc(Nc3ccc(Oc4ccc(C)nc4)c(C)c3)c2c1 [CP-724714]
- % of control [2]: 100%

Structure (SMILES): C=CC(=O)Nc1cc(-n2c(=O)ccc3cnc4ccc(-c5ccc(NS(C)(=O)=O)cc5)cc4c32)ccc1C
- % of control ([3]; at 1 µM): 70%
- % of control ([3]; at 10 µM): 59%

Structure (SMILES): O[C@H]1CC[C@H](Nc2ncc3nc(Nc4c(F)cc(F)cc4F)n([C@H]4CCOC4)c3n2)CC1
- % of control [4]: 60%

Structure (SMILES): Cc1cc([C@@H](C)Nc2ccccc2C(=O)O)c2nc(N3CCOCC3)cc(=O)n2c1 [AZD-6482]
- % of control [5]: 90%
- % of control [6]: 98%

Reference: ChEMBL document CHEMBL5465560, “Selectivity Literature for EUbOPEN Chemogenomic Library” (2024)
